Measurements as given in PMC11838108, “Screening and evaluation of novel DPP-IV inhibitory peptides in goat milk based on molecular docking and molecular dynamics simulation” (Food Chemistry: X, 2025).
Like-named read-outs stand apart in the source and are kept apart here. Where no end group is shown, it is not given here.

Experiments:
[1] = Stability of peptides after in vitro simulated digestion (RP-HPLC); assay type: in vitro ADME; set-up: remaining at 2 min: dose or concentration left out as unconfirmed; conditions: for Oral-gastric digestion (stability of peptide): after oral and gastric phase; for Oral-gastric digestion (stability of peptide) / Oral-gastric-intestinal digestion (stability of peptide) / remaining at 2 min: RP-HPLC peak area; for Oral-gastric-intestinal digestion (stability of peptide): after oral, gastric and intestinal phase; for decrease of stability after intestinal digestion: relative to oral-gastric digestion; for remaining at 2 min: simulated salivary fluid (SSF) with salivary amylase, after oral phase, read-out: Oral digestion (stability of peptide)
Procedure: (§1) Based on the method described by Brodkorb et al. ([Brodkorb et al., 2019]), the following solutions were prepared: SSF, SGF, and SIF salt solutions, and salivary amylase, pepsin, and trypsin solutions.
Each peptide was dissolved at a concentration of 1 mg/mL, and 0.094 mL of SSF, 0.001 mL of CaCl2·2H2O (0.3 M), 0.025 mL of salivary amylase (75 U/mL), and 0.005 mL of H2O were sequentially added, for a total volume of 0.25 mL. The mixture was then incubated in a 37 °C incubator for 2 min.
Briefly, 0.25 mL of the oral digestion mixture was sequentially combined with 0.12 mL of SGF, 0.001 mL of CaCl2·2H2O (0.3 M), 0.048 mL of pepsin (2000 U/mL), 0.060 mL of SGF, 0.011 mL of H2O, and 0.010 mL of HCl (1 M), for a total volume of 0.5 mL. The mixture was then incubated in a 37 °C incubator for 2 h.
A 0.50-mL sample of the gastric digestion mixture was successively combined with 0.195 mL of SIF, 0.001 mL of CaCl2·2H2O (0.3 M), 0.125 mL of trypsin (100 U/mL), 0.100 mL of SIF, and 0.079 mL of H2O. The mixture was then incubated in a 37 °C incubator for 2 h at a pH of 7.0.
After oral, gastric, and intestinal digestion, the digestion mixture was filtered through a 0.22-μm sterile filter. The filtrate was stored at −20 °C for subsequent analysis.
The in vitro simulated digestion experiments of the peptides were conducted in accordance with the method described by Hao et al., with minor modifications ([Hao et al., 2020]). The stability of peptides post-digestion was assessed by RP-HPLC (CAP-CELL PAK C18 AQ S-5, 10 mm × 150 mm column, Shiseido, Tokyo, Japan) with a detection wavelength of 228 nm. The formula for determining the peptide stability was as follows: Stability of peptides%=Pa/Pb×100 where Pa represents the peak area of the digested sample, and Pb represents the peak area of the reference sample.

Caco-2 cells = test: Cytotoxicity assay (CCK-8); assay type: cell-based; conditions: 24 h, GL-6 0.195–3.11 mM, LY-5 0.193–3.07 mM
Procedure: A peptide cytotoxicity assay using Caco-2 cells was conducted based on the method outlined by Hao et al. with minor modifications ([Hao et al., 2020]). Initially, the cells were evenly seeded on a 96-well plate with 100 μL of 2 × 10^4 cells. After seeding, the plate was placed in a sterile and CO2-enriched incubator. After a 24-h incubation, the medium was removed, and the adherent cells were used for subsequent experiments. The peptides were dissolved in the basal medium (DMEM) and cells were treated with different concentrations of peptides. After a 24-h incubation period, 10 μL of CCK-8 was added to each well and incubated with the cells. The absorbance at 450 nm was recorded to determine cell viability.
The following formula was used to calculate cell viability, with cells cultured in the basal medium used as the control group for comparison: Cell viability%=Asample/Acontrol×100

DPP-IV [2] = target: T1, DPP-IV (Homo sapiens, UniProt P27487); test: DPP-IV inhibitory activity of peptides after in vitro simulated digestion; assay type: biochemical; conditions: GL-6 at 130.68 μM, LY-5 at 179.52 μM; after oral-gastric-intestinal digestion
T1 sequence (P27487 whole entry): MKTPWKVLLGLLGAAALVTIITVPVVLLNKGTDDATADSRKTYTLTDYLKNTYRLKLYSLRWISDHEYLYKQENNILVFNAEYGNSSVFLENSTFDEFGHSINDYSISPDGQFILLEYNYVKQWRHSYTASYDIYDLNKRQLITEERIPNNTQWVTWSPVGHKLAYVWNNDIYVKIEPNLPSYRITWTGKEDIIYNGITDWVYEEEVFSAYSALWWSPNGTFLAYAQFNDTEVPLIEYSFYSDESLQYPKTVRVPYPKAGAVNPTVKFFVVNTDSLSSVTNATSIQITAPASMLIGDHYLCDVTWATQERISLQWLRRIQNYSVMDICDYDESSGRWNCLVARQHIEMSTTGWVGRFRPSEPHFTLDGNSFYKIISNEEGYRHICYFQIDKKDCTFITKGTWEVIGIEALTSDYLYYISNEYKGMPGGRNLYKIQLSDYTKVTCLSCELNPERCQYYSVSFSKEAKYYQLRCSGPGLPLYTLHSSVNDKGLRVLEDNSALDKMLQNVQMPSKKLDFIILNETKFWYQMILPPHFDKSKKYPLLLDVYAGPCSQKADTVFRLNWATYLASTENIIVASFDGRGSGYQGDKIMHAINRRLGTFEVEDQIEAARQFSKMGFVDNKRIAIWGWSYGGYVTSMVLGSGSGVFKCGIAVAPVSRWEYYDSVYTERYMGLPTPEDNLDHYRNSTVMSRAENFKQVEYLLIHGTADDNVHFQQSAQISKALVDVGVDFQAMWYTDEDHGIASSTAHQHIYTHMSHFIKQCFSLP
Procedure: The method outlined by Nongonierma et al. ([Nongonierma & FitzGerald, 2013]) was adapted for our study. Peptides were prepared at various concentrations and transferred to a 96-well microplate containing Gly-Pro-pNA (0.2 mM). The microplates were then incubated for 5 min. Subsequently, DPP-IV (0.0025 U/mL) was added, followed by an additional incubation for 60 min. The absorbance of the mixture was measured at 405 nm. The peptides, Gly-Pro-pNA, and DPP-IV were then dissolved in Tris-HCl (0.1 M). Tris-HCl was used as the negative control with DPP-IV but without the peptides and as the blank control without the peptides or DPP-IV. Sitagliptin was used as the positive control instead of the peptides. The formula for calculating the inhibitory activity was as follows: DPP−IVinhibitory activity%=Ac−As/Ac−Ab×100 where absorbance values for the control, sample, and blank groups were designated as Ac, As, and Ab, respectively.
as §1
Each peptide was dissolved at a concentration of 1 mg/mL, and 0.094 mL of SSF, 0.001 mL of CaCl2·2H2O (0.3 M), 0.025 mL of salivary amylase (75 U/mL), and 0.005 mL of H2O were sequentially added, for a total volume of 0.25 mL. […]

DPP-IV [3] = system: T2, DPP-IV; test: DPP-IV inhibitory activity in Caco-2 cells (Gly-Pro-AMC substrate); assay type: cell-based; conditions: peptide 2 mg/mL (GPFPLL 3.11 mM, LPYPY 3.07 mM), 24 h
T2 construct: endogenous in cells; host or cells: Caco-2 cells (Haixing Biological Technology Co., Ltd.)
Procedure: Caco-2 cells were seeded on a black 96-well plate at a density of 2 × 10^4 cells per well. Subsequently, the cells were treated with sample solutions at various concentrations and then further incubated for 24 h. After incubating, the peptide solutions and medium were removed from the wells, and 100 μL of the Gly-Pro-AMC substrate (50 μM) was added to each well and incubated for 10 min at 37 °C.

DPP-IV [4] = target: T1, DPP-IV; test: DPP-IV inhibition by the peptides (Gly-Pro-pNA substrate); assay type: biochemical; conditions: Gly-Pro-pNA 0.2 mM, DPP-IV 0.0025 U/mL, 60 min; read-out: DPP-IV inhibitory activity IC50
Procedure: Peptides were prepared at various concentrations and transferred to a 96-well microplate containing Gly-Pro-pNA (0.2 mM). The microplates were then incubated for 5 min. Subsequently, DPP-IV (0.0025 U/mL) was added, followed by an additional incubation for 60 min. […] The peptides, Gly-Pro-pNA, and DPP-IV were then dissolved in Tris-HCl (0.1 M). Tris-HCl was used as the negative control with DPP-IV but without the peptides and as the blank control without the peptides or DPP-IV.

DPP-IV [5] = conditions: cited from earlier work
[6] = set-up: method as in Yin et al., 2022; conditions: ref Yin et al., 2022; cited from earlier work
[7] = target: angiotensin-converting enzyme (ACE); conditions: ref Chen, Yu, Wu, & He, 2022, read-out: ACE inhibitory IC50; cited from earlier work

Substance: GPFPLL [GPFPLL]
- Oral-gastric digestion (stability of peptide) [1]: 96.37%
- Oral-gastric-intestinal digestion (stability of peptide) [1]: 69.48%
- decrease of stability after intestinal digestion [1]: 26.89%
- remaining at 2 min [1]: 99.6%
- cytotoxicity to Caco-2 cells (Caco-2 cells): Neither GL-6 nor LY-5 exhibited significant cytotoxicity
- DPP-IV inhibitory rate after intestinal digestion (DPP-IV [2]): 31.90 % ± 1.80
- DPP-IV inhibition rate in Caco-2 cells (DPP-IV [3]): 46.53 % ± 3.48
- IC50 (DPP-IV [4]): 131 ± 10.4 µM

Substance: IPYWTY
- mode of inhibition of DPP-IV (DPP-IV [5]; pea protein peptide, ref Zhang, Zhu, et al., 2022): competitive inhibition

Substance: LPVGP
- stability after intestinal digestion [6]: 80%

Substance: EACF
- IC50 [7]: 41.1 µM

Substance: LPYPY [LPYPY]
- Oral-gastric digestion (stability of peptide) [1]: 97.60%
- Oral-gastric-intestinal digestion (stability of peptide) [1]: 81.99%
- decrease of stability after intestinal digestion [1]: 15.61%
- remaining at 2 min [1]: 99.5%
- cytotoxicity to Caco-2 cells (Caco-2 cells): Neither GL-6 nor LY-5 exhibited significant cytotoxicity
- DPP-IV inhibitory rate after intestinal digestion (DPP-IV [2]): 39.37 % ± 0.90
- DPP-IV inhibition rate in Caco-2 cells (DPP-IV [3]): 65.98 % ± 2.87
- IC50 (DPP-IV [4]): 180 ± 18.9 µM

Substance: PPGIPYW
- mode of inhibition of DPP-IV (DPP-IV [5]; chickpea protein peptide, ref Zan et al., 2023): competitive inhibition

Substance: CDF
- IC50 [7]: 192 µM

Substance: LPFYPN
- mode of inhibition of DPP-IV (DPP-IV [5]; coix seed protein peptide, ref Zhang et al., 2023): competitive inhibition

Substance: GPFPILN [GPFPILN]
- IC50 (DPP-IV [4]): 198 ± 14.9 µM

Substance: LLSPP
- stability after intestinal digestion [6]: 80%
